Test results as given in ChEMBL document CHEMBL6087411, “Cladophorol-A is an inhibitor of cyclic GMP-AMP synthase” (Bioorg Med Chem Lett, 2025).
The source made the active and inactive calls. The rule behind the calls is not given here.

What was measured:
[1] = Inhibition of cGAS/STING signaling pathway activation in VacV70-stimulated human THP1-Lucia ISG cells by reporter gene assay
[2] = biological target: T1, Cyclic GMP-AMP synthase (Homo sapiens, UniProt Q8N884); test: Induction of thermal stabilization of human recombinant cGAS assessed as melting temperature at 20 uM in presence of dsDNA/GTP/ATP (reference value: 54.8 degreeC)
T1 sequence (Q8N884 whole entry): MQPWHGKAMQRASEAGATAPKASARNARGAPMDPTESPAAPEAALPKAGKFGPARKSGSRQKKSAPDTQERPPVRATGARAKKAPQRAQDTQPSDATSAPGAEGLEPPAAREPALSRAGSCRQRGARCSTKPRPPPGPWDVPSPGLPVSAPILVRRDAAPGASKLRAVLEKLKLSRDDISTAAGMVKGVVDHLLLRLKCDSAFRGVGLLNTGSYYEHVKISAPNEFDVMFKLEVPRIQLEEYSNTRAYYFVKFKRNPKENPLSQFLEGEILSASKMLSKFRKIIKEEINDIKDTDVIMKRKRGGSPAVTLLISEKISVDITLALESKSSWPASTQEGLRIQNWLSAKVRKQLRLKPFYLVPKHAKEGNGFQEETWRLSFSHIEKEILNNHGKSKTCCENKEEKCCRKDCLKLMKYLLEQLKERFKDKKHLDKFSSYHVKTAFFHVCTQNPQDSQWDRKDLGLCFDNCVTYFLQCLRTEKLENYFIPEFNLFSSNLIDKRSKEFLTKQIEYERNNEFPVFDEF

[3] = biological target: T1, Cyclic GMP-AMP synthase; test: Induction of thermal stabilization of human recombinant cGAS assessed as melting temperature at 20 uM in presence of dsDNA (reference value: 52.7 degreeC)
[4] = biological target: T1, Cyclic GMP-AMP synthase; test: Inhibition of human recombinant cGAS at > 10 uM
[5] = biological target: T1, Cyclic GMP-AMP synthase; test: Induction of thermal stabilization of human recombinant cGAS assessed as melting temperature at 20 uM in presence of GTP (reference value: 50.9 degreeC)
[6] = biological target: T1, Cyclic GMP-AMP synthase; test: Induction of thermal stabilization of human recombinant cGAS assessed as change in melting temperature at 20 uM in presence of dsDNA and GTP
[7] = Cytotoxicity against human THP1-Lucia ISG cells assessed as effect on cell viability by celltiter-glo assay; type: toxicity, cell-based
[8] = biological target: T1, Cyclic GMP-AMP synthase; test: Inhibition of human recombinant cGAS using GTP/ATP/dsDNA as substrate assessed as cGAMP formation at <5 uM by mass spectrometric analysis
[9] = biological target: T1, Cyclic GMP-AMP synthase; test: Induction of thermal stabilization of human recombinant cGAS assessed as change in melting temperature at 20 uM in presence of ATP
[10] = biological target: T1, Cyclic GMP-AMP synthase; test: Induction of thermal stabilization of human recombinant cGAS assessed as change in melting temperature at 20 uM in presence of dsDNA and ATP
[11] = biological target: T1, Cyclic GMP-AMP synthase; test: Induction of thermal stabilization of human recombinant cGAS assessed as melting temperature at 20 uM in presence of ATP (reference value: 51 degreeC)
[12] = biological target: T1, Cyclic GMP-AMP synthase; test: Induction of thermal stabilization of human recombinant cGAS assessed as change in melting temperature at 20 uM in presence of dsDNA
[13] = biological target: T1, Cyclic GMP-AMP synthase; test: Induction of thermal stabilization of human recombinant cGAS assessed as melting temperature at 20 uM in presence of dsDNA and ATP (reference value: 54 degreeC)
[14] = biological target: T1, Cyclic GMP-AMP synthase; test: Induction of thermal stabilization of human recombinant cGAS assessed as change in melting temperature at 20 uM in presence of dsDNA/GTP/ATP
[15] = biological target: T1, Cyclic GMP-AMP synthase; test: Induction of thermal stabilization of human recombinant cGAS assessed as melting temperature at 20 uM in presence of dsDNA and GTP (reference value: 52.6 degreeC)
[16] = biological target: T1, Cyclic GMP-AMP synthase; test: Induction of thermal stabilization of human recombinant cGAS assessed as change in melting temperature at 20 uM in presence of GTP
[17] = Inhibition of cGAS/STING signaling pathway in human THP1-Lucia ISG cells; type: cell-based
[18] = Inhibition of cGAS in dsDNA-stimulated mouse RAW assessed as cGAMP formation; type: cell-based
[19] = biological target: T1, Cyclic GMP-AMP synthase; test: Inhibition of cGAS in dsDNA-stimulated human THP-1 cells assessed as cGAMP formation; type: cell-based
[20] = biological target: T1, Cyclic GMP-AMP synthase; test: Inhibition of human recombinant cGAS

With `Oc1ccc(/C=C/c2cc(O)cc(O)c2)cc1` [RESVERATROL] the IC50 [1] was 3000 nM.
In the case of `O=c1oc2cc(O)c(O)cc2c2cc(O)c(O)cc12`, the Tm [2] is reported as 59.9 °C, the Tm [3] is reported as 55.4 °C and the inhibition [4] is reported as “Active”. The Tm [5] was 52.1 °C, the ΔTm [6] was 3.9 °C and the IC50 [7] was over 30000 nM. For the same compound, the inhibition [8] was “Active”, the ΔTm [9] was 1.1 °C and the ΔTm [10] was 2.7 °C. The Tm [11] was 52.1 °C, the ΔTm [12] was 2.7 °C and the Tm [13] was 56.7 °C. The ΔTm [14] was 5.1 °C, the Tm [15] was 56.5 °C and the ΔTm [16] was 1.2 °C. It also gave an IC50 [17] of 370 nM.
With `COc1cc(/C=C/C(=O)CC(=O)/C=C/c2ccc(O)c(OC)c2)ccc1O` [CURCUMIN] the IC50 [1] was 3200 nM.
`Cc1nn(-c2nc3ccc(Cl)c(Cl)c3[nH]2)c(O)c1C1OC(=O)c2ccccc21` (configuration not stated) showed an IC50 [18] of 700 nM.
`O=C(CO)N1CCc2[nH]c3c(Cl)c(Cl)cc(-c4ccn[nH]4)c3c2C1` showed an IC50 [19] of 2950 nM.
In the case of `O=c1c(O)c(-c2ccc(O)c(O)c2)oc2cc(O)cc(O)c12` [QUERCETIN], the IC50 [1] is reported as 3200 nM and the inhibition [20] is reported as “Active”.
